What was measured:
Assay in all cases: relative viability (nuclei count vs DMSO), 5 days (fraction); higher = more cells survive
[1] = compound: C1CNCCC1C2=CC(=NN2)C3=CC=NC=C3 + COc1cc2c(Oc3ccc(NC(=O)C4(C(=O)Nc5ccc(F)cc5)CC4)cc3F)ccnc2cc1OCCCN1CCOCC1 [Foretinib] (partner 0.25 µM)
Procedure, shortened: (§1)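 Dosing by pin tool came one day after lung cancer cell lines were seeded in 1536-well plates, using either one drug or a fixed anchor-drug dose plus five library-drug doses (not always all listed) in √10 steps. After 5 days, nuclei were counted on 4× images. Relative viability is treated-well nuclei count divided by vehicle-well nuclei count, and values are medians of duplicate plates.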

[2] = compound: C1CNCCC1C2=CC(=NN2)C3=CC=NC=C3 + CC1(C)CCC(c2ccc(Cl)cc2)=C(CN2CCN(c3ccc(C(=O)NS(=O)(=O)c4ccc(N[C@H](CCN5CCOCC5)CSc5ccccc5)c(S(=O)(=O)C(F)(F)F)c4)cc3)CC2)C1 [Navitoclax] (partner 0.5 µM)
Procedure, shortened: as §1

[3] = compound: C1CNCCC1C2=CC(=NN2)C3=CC=NC=C3 + Cc1nc(Nc2ncc(C(=O)Nc3c(C)cccc3Cl)s2)cc(N2CCN(CCO)CC2)n1 [Dasatinib] (partner 0.075 µM)
Procedure, shortened: as §1

[4] = compound: C[C@@H](N)c1ccc(C(=O)Nc2ccnc3[nH]ccc23)cc1 + C[C@@H](Oc1cc(-c2cnn(C3CCNCC3)c2)cnc1N)c1c(Cl)ccc(F)c1Cl [Crizotinib] (partner 1 µM)
Procedure, shortened: as §1

UMC-11
relative viability ([1]; first compound 0.08 µM): 1
relative viability ([1]; first compound 0.8 µM): 1.17
relative viability ([1]; first compound 2.53 µM): 1.09
relative viability ([1]; first compound 8 µM): 1.09
relative viability ([2]; first compound 0.08 µM): 0.3
relative viability ([2]; first compound 0.8 µM): 0.344
relative viability ([2]; first compound 2.53 µM): 0.321
relative viability ([2]; first compound 8 µM): 0.355
relative viability ([3]; first compound 0.08 µM): 0.498
relative viability ([3]; first compound 0.8 µM): 0.543
relative viability ([3]; first compound 2.53 µM): 0.488
relative viability ([3]; first compound 8 µM): 0.521
relative viability ([4]; first compound 0.04 µM): 0.714
relative viability ([4]; first compound 0.1265 µM): 0.615
relative viability ([4]; first compound 0.4 µM): 0.79
relative viability ([4]; first compound 1.265 µM): 0.749
relative viability ([4]; first compound 4 µM): 0.346

Source: the supplement of paper PMC10307832
